Drawing on patent US10493060B2, “Spirocyclic compounds” (ZENO ROYALTIES & MILESTONES, LLC, priority 2015, dated 2019), this text covers IC50 for five compounds.

In general, IC50 refers to the midpoint of a concentration-inhibition curve.

For assay [1], the system named is Mia Paca-2 (pancreatic) cells. As to the kind of experiment: Proliferation assay (CellTiter-Glo), Mia Paca-2. Particulars: Homo sapiens, 72 h, Mia Paca-2 cells, 3 days. The class given is cell-based. The procedure:
(§1) A375 (melanoma), Colo-205 (colon cancer), Miapaca (pancreatic), HPAFII (pancreatic), sNF02.0 (neurofibromatosis type 1), sNF96.2 (neurofibromatosis type 1) and 8505 (Thyroid) cells were grown and maintained in RPMI-1640 medium containing 100 U/mL penicillin-streptomycin and 10% fetal bovine serum. Cells were in growth medium in 96-well opaque-walled clear bottom plates and incubated the in the CO2 incubator overnight before treatment. Cells were treated with compounds diluted in DMSO and a 10 point 3-fold serial dilutions were done. Plates were placed in 37° C., 5% CO2 for to incubate for 3 days. Before they were developed by adding 100 μL of CellTiter-Glo reagent (Promega) to the assay plate, plates were shaken briefly for 2 mins and allowed to incubate at rt for 10 mins. The bottom of the plates was pasted with white back seal and luminescence was recorded with Flexstation3 with setting of luminescence, integration time 500 ms.
A general note: ATP-based viability assays read luminescence as a measure of living cells.

The test system of assay [2] is Colo-205 (colon cancer) cells. In words: Proliferation assay (CellTiter-Glo), Colo-205. Particulars: Homo sapiens, COLO 205, 72 h, Colo205 cells, 3 days. The class given is cell-based. Here is the method:
as §1

Assay [3] relates to HPAFII (pancreatic) cells. As to the kind of experiment: Proliferation assay (CellTiter-Glo), HPAFII. The class given is cell-based. The conditions noted are these: Homo sapiens, HPAF-II, 72 h, 3 days. Here is the method:
as §1

In assay [4] the target is Activated ERK2 (Homo sapiens (Human), UniProt P28482). In words: Active ERK2 kinase assay (Mobility Shift Assay). The class given is biochemical. The essentials: (§2)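 Readout is LabChip mobility-shift, product ratio P/(P+S) from peak heights after a 1 h rt kinase reaction started by adding fluorescent substrate, ATP and metal. Beforehand, enzyme and compound were incubated 30 min at rt in HEPES pH7.5 buffer containing Triton X-100 and DTT.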

Assay [5] concerns A375 (melanoma) cells. In words: Proliferation assay (CellTiter-Glo), A375. The class given is cell-based. Particulars: Homo sapiens, A-375, 72 h, 3 days. Here is the method:
as §1

Assay [6] deals with sNF96.2 (neurofibromatosis type 1) cells. As to the kind of experiment: Proliferation assay (CellTiter-Glo), sNF96.2. The class given is cell-based. The conditions noted are these: 72 h, sNF96.2 cells, 3 days. Here is the method: as §1
The test system of assay [7] is sNF02.2 (neurofibromatosis type 1) cells. In words: Proliferation assay (CellTiter-Glo), sNF02.2. Particulars: 72 h, sNF02.2 cells, 3 days. In kind it is cell-based. Here is the method:
as §1

Assay [8] has as its system 8505C (Thyroid) cells. As to the kind of experiment: Proliferation assay (CellTiter-Glo), 8505C. In kind it is cell-based. Particulars: Homo sapiens, 72 h, 8505C cells, 3 days. Here is the method:
as §1

In assay [9] the target is Activated ERK1 (Homo sapiens (Human), UniProt P27361). As to the kind of experiment: Active ERK1 kinase assay (Mobility Shift Assay). The class given is biochemical. The essentials:
as §2

Chain of Activated ERK2 (P28482 whole entry): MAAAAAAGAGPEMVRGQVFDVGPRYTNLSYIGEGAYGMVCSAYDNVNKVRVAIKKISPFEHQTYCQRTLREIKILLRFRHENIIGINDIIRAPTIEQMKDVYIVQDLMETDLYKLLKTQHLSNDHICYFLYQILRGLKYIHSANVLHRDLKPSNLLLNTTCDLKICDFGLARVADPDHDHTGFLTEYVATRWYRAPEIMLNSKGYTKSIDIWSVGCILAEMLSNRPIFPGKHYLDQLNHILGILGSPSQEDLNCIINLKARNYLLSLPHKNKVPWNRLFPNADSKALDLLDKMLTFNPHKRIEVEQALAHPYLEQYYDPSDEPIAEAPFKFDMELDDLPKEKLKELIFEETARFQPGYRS
Chain of Activated ERK1 (P27361 whole entry): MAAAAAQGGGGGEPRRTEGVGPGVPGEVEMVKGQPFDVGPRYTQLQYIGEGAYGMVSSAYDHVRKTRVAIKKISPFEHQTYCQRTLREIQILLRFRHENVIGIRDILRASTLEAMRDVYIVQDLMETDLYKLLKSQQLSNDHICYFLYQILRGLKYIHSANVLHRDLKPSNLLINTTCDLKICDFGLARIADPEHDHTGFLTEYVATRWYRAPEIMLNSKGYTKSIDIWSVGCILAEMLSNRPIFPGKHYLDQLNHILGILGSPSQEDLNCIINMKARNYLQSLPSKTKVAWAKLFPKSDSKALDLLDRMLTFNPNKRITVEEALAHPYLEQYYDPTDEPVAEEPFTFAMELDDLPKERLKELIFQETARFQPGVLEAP

As for `CC(C)Oc1ccc(-c2n[nH]c3ccc(N4CC[C@]5(CCN(CC(=O)N6CC=C(c7ccc(-c8ncn(C)n8)cc7)CC6)C5)C4=O)cc23)cn1` [Example 10, (S)-2-(3-(6-Isopropoxypyridin-3-yl)-1H-indazol-5-yl)-7-(2-(4-(4-(1-methyl-1H-1,2,4-triazol-3-yl)phenyl)-3,6-dihydropyridin-1 (2H)-yl)-2-oxoethyl)-2,7-diazaspiro[4.4]nonan-1-one], the IC50 in [1] was at most 500 nM; in [2], at most 500 nM; in assay [3], at most 500 nM; in [4], at most 50 nM; in assay [5], at most 500 nM; in [6], 500 to 1000 nM. Further, the values for the IC50 in assay [7], in assay [8] and in assay [9] were at least 1000 nM, at least 1000 nM and at most 50 nM, respectively.
In the case of `O=C(Nc1ccc2[nH]nc(-c3ccncc3)c2c1)[C@@H]1CCN(CC(=O)N2CCN(c3ccc(-c4ncccn4)cc3)CC2)C1` [SCH772984], the concentration for half-maximal inhibition (IC50) in [1] was at most 500 nM; in assay [2], at most 500 nM; in assay [3], at most 500 nM; in assay [5], at most 500 nM; in [6], 500 to 1000 nM; in assay [7] it was at most 500 nM. The IC50 is 500 to 1000 nM in assay [8] and at most 50 nM in assay [9].
Consider `Cc1cc(-c2n[nH]c3ccc(N4CC[C@]5(CCN(CC(=O)N6CC=C(c7ccc(-c8ncn(C)n8)cc7)CC6)C5)C4=O)cc23)ccn1` [Example 8, (S)-7-(2-(4-(4-(1-Methyl-1H-1,2,4-triazol-3-yl)phenyl)-3,6-dihydropyridin-1(2H)-yl)-2-oxoethyl)-2-(3-(2-methylpyridin-4-yl)-1H-indazol-5-yl)-2,7-diazaspiro[4.4]nonan-1-one], for which the IC50 in [1] is at most 500 nM; in [2] it was at most 500 nM; in assay [3], at most 500 nM; in assay [4], at most 50 nM; in [5], at most 500 nM; in assay [6], at most 500 nM. Moreover, the 50% inhibitory concentration (IC50) in assay [7] was at most 500 nM; in [8] it was at most 500 nM; in assay [9], at most 50 nM.
`Cn1cnc(-c2ccc(C3=CCN(C(=O)CN4CC[C@]5(CCN(c6ccc7[nH]nc(-c8ccc(F)cc8)c7c6)C5=O)C4)CC3)cc2)n1` [Example 29, (S)-2-(3-(4-Fluorophenyl)-1H-indazol-5-yl)-7-(2-(4-(4-(1-methyl-1H-1,2,4-triazol-3-yl)phenyl)-3,6-dihydropyridin-1(2H)-yl)-2-oxoethyl)-2,7-diazaspiro[4.4]nonan-1-one]: the IC50 was at most 500 nM in assay [1]; at most 500 nM in assay [3]; at most 50 nM in assay [4]; at most 500 nM in assay [5]; at most 500 nM in assay [6]; at most 500 nM in [7]. Also, the 50% inhibitory concentration (IC50) is 500 to 1000 nM in [8] and at most 50 nM in assay [9].
In the case of `CC(C)Nc1cc(-c2c[nH]c(C(=O)N[C@H](CO)c3cccc(Cl)c3)c2)c(Cl)cn1` [BVD-523], the IC50 in assay [1] is at most 500 nM; in assay [2] it was at most 500 nM; in assay [3] it was at most 500 nM; in [5], at most 500 nM; in assay [6], 500 to 1000 nM; in assay [7], at least 1000 nM. The figures for the IC50 in [8] and in assay [9] were at least 1000 nM and at most 50 nM, respectively.
